According to BindingDB's records for doi:10.1021/acschembio.7b00385 (Novartis Pharma, 2017):

Tests used:
Test in all cases: Liquid growth assay
Details in all cases: 30 °C
Actin [R183K] = Actin [R183K] (Saccharomyces cerevisiae (strain ATCC 204508 / S288c), UniProt P60010, R183K)
Description: (§1) Saturated ACT1 wild type (WT) as well as engineered ACT1 R183K (R183K) and ACT1 R335K (R335K) cultures were adjusted to 10 OD600 and 3 uL of serial 1:3 dilutions spotted on YPD agar supplemented with indicated concentrations of Chivosazole F. Growth was scored after 3 days incubation at 30 °C.

Actin [R335K] = Actin [R335K] (Saccharomyces cerevisiae (strain ATCC 204508 / S288c), UniProt P60010, R335K)
Description: as §1

Actin = Actin (Saccharomyces cerevisiae (strain ATCC 204508 / S288c), UniProt P60010)
Description: as §1

Structure (SMILES)	IC50 (Actin [R183K])	IC50 (Actin [R335K])	IC50 (Actin)
C/C1=C\[C@@H](C)[C@@H](C)OC(=O)C[C@H](c2ccc(O)cc2)NC(=O)[C@@H](Cc2c[nH]c3ccccc23)N(C)C(=O)[C@H](C)NC(=O)[C@@H](C)C1 [CHEBI:84382]	11900 nM	15100 nM	16700 nM
C/C1=C/C(=O)O[C@@H]2C[C@@H](CC[C@H](C)/C=C\C=C\CC1)O[C@@](O)([C@@H]1CSC(=O)N1)C2 [LAT-A]	110 nM	40 nM	70 nM
COC1CC(O)/C=C/C=C/C=C\C(C)C(C(C)C(O)CC(C)O)OC(=O)\C=C/C=C/C=C\C(C)=C\C(C)C(O)/C=C\C=C\c2coc(n2)C1C (centres undefined) [SCHEMBL1889389]	380 nM	270 nM	140 nM
